The text below walks through data of patent publication US5102905A, “Thienyl benzothienyl and dibenzothienyl compounds as inhibitors of aldose reductase” (Imperial Chemical Industries PLC, priority 1988, dated 1992).

Each structure is given as a SMILES string.

The target in assay [1] is T1, aldose reductase (Rattus norvegicus, UniProt P07943).
T1 construct: the eye lenses and/or sciatic nerves are removed; from tissue; host or cells: rat eye lenses and/or sciatic nerves (in vivo, streptozotocin-diabetic rats)
Put plainly: in vivo inhibition of aldose reductase in streptozotocin diabetic rats (residual sorbitol levels in eye lenses and/or sciatic nerves). As to conditions: dosed daily for one, two or five days, read-out: ED50 in the in vivo test. As to the method:
Rats are made diabetic (as evidenced by severe glucosuria being present) by dosing with streptozotocin. The animals are then dosed daily with the test compound for one, two or five days. The animals are then sacrificed 2-6 hours after the final dose and the eye lenses and/or sciatic nerves are removed. After a standard work-up procedure the residual sorbitol levels in each tissue are determined by gas liquid chromatography after conversion to the polytrimethylsilyl derivatives. Inhibition of aldose reductase in vivo can then be assessed by comparing the residual sorbitol levels in tissues from the dosed diabetic group of rats with those of an undosed group of diabetic rats and an undosed, normal group of rats.

The target of assay [2] is T2, aldose reductase (Bos taurus, UniProt P16116).
T2 construct: isolated in known manner from bovine lenses; from tissue; host or cells: bovine lenses
Briefly: in vitro inhibition of partially purified aldose reductase isolated from bovine lenses (spectrophotometric). The format is biochemical. The conditions noted are these: read-out: IC50 in the in vitro test. From the text: Thus, in a standard procedure partially purified aldose reductase is isolated in known manner from bovine lenses. The percentage inhibition of this enzyme's ability in vitro to catalyse the reduction of aldoses to polyhydric alcohols, and particularly to reduce glucose or sorbitol, caused by a test compound can then be determined using standard spectrophotometric methods.

Turning to `O=[N+]([O-])CS(=O)(=O)c1cccs1` [Example 1, 2-(nitromethylsulphonyl)thiophene], on aldose reductase [1], the median effective dose (ED50) is 2.1 mg/kg. Further, the IC50 at aldose reductase [2] was found to be 54 nM.

In general, ED50 refers to the dose that gives a 50% effect, or the effect in half of the subjects. For orientation: IC50 means the concentration that inhibits the measured activity by half.
